For experiment [1], the target named is T1, TRPML1 (Homo sapiens, UniProt Q9GZU1).
T1 construct: expressed in transfected cells
The experiment is described as follows: TRPML1 manual patch clamp on isolated enlarged endolysosomes. The format is cell-based. Conditions: whole-endolysosome recording, HEK T-REx/GcaMP6f/TRPML1 cells, luminal pH 4.6. Here is the method:
TRPML1 —Manual Patch Clamp
Endolysosomal electrophysiology was performed in isolated enlarged endolysosomes using a modified patch-clamp method (Dong et al., 2010). HEK T-REx/GcaMP6f/TRPML1 cells were treated with […] PIKfive inhibitor overnight. Whole-endolysosome recordings were performed on manually isolated enlarged endolysosomes (Dong et al., 2010). In brief, a patch pipette was pressed against a cell and quickly pulled away to slice the cell membrane. Enlarged endolysosomes were released into a dish and a gigaseal between the patch pipette and the enlarged endolysosome was obtained. Negative pressure or voltage steps of several hundred millivolts with millisecond duration were then applied to break into the vacuolar membrane.
Bath (internal/cytoplasmic) solution contained 140 mM K-gluconate, 4 mM NaCl, 1 mM EGTA, 2 mM MgCl2, 0.39 mM CaCl2), 20 mM HEPES (pH was adjusted with KOH to 7.2). The pipette (luminal) solution was standard extracellular solution (modified Tyrode's: 145 mM NaCl, 5 mM KCl, 2 mM CaCl2), 1 mM MgCl2, 10 mM HEPES, 10 mM MES, 10 mM glucose; the pH was adjusted with NaOH to pH 4.6).
Dilution from stock were prepared just before the experiments in the extracellular solution (0.1% final DMSO concentration). DMSO solution was obtained from AppliChem (cat. A3672).
All bath solutions were applied via a perfusion system that allowed us to achieve complete solution exchange within a few seconds.
Data were collected using an HEKA EPC 10 patch-clamp amplifier, and PatchMaster v2x73.5 software (HEKA Elektronik). Whole-endolysosome currents were digitized at 20 kHz. All experiments were conducted at room temperature, and all recordings were analyzed with pClamp 10.7 (Molecular Devices) and GraphPad Prism (V8.00).
TRPML1 current was evoked using the voltage protocol illustrated in FIG. 3, applied every 5 sec. (10 ms at −80 mV; 500 ms ramp from −120 to +40 mV; 10 ms at −80 mV); in the absence (vehicle period, i.e. 0.1% DMSO) and in the presence of the compound (agonist) under investigation.
On the technique in general: Patch clamp records ionic current or voltage across a cell membrane.

For experiment [2], the target named is T1, TRPML1. Put plainly: Cellular TRPML1 assay (FLIPR TETRA, GCaMP6f calcium read-out). Conditions: HEK T-REx/GCaMP6f/TRPML1 cells; Ca2+ response over 300 s, normalized to ML-SA1 50 μM; Ca2+ free or Optimem condition not given; read-out: Ec50 (Activity of TRPML1 agonists). The experiment is classed as cell-based. Put shortly:
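HEK T-REx cells stably expressing TRPML1 and GCaMP6f, assayed 24 h after seeding in Ca2+-free Tyrode's (pH 7.4) or Opti-MEM. Compounds injected on FLIPR Tetra (0.5% DMSO) in dose-response from 100 μM (1:2) or 50 μM (1:3.16); fluorescence kinetics 300 s, referenced to 50 μM ML-SA1 stimulator control.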

In general, EC50 refers to the concentration giving half of the maximal effect.

T1 sequence (Q9GZU1 whole entry): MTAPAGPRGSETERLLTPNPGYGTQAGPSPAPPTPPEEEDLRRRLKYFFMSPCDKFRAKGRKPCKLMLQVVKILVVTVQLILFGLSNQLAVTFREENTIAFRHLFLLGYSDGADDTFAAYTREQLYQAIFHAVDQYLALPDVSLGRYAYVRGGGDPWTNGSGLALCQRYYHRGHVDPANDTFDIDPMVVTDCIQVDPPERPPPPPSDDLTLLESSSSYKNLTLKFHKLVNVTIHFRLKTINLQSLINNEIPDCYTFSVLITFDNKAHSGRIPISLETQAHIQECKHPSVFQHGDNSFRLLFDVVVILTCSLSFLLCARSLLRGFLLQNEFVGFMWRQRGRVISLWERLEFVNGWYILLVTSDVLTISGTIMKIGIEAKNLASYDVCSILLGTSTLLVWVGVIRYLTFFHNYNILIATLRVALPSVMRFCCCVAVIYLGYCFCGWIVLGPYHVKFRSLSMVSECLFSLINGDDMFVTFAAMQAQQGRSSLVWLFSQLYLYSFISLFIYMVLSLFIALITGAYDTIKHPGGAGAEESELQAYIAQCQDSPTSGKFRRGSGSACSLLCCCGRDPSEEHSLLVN

Consider `CN(C)S(=O)(=O)c1ccc(S(=O)(=O)NC2CCCCC2N2CCC(Oc3ccccc3)CC2)cc1` (racemic) [Example 57, N1,N1-dimethyl-N4-[2-(4-phenoxypiperidin-1-yl)cyclohexyl]benzene-1,4-disulfonamide], for which the “Lysosomal Patch-Clamp Current fold increase Mean ± SEM (n)” value in experiment [1] (2.0 uM compound) is given as 18.0 ± 8.5 (3). Further, the EC50 in experiment [2] was 3000 nM.
Consider `CN(C)S(=O)(=O)c1ccc(S(=O)(=O)Nc2ccccc2N2CCN(C(=O)OC(C)(C)C)CC2)cc1` [Example 13, tert-butyl 4-{2-[4-(dimethylsulfamoyl)benzenesulfonamido]phenyl}piperazine-1-carboxylate], for which the “Lysosomal Patch-Clamp Current fold increase Mean ± SEM (n)” value in experiment [1] (30.0 uM compound) is 27.5 ± 10.8 (2). The EC50 in experiment [2] came out at 2100 nM.
Take `CN(C)S(=O)(=O)c1ccc(S(=O)(=O)Nc2ccccc2N2CCC(Oc3cnccn3)CC2)cc1` [Example 77, N1,N1-dimethyl-N4-{2-[4-(pyrazin-2-yloxy)piperidin-1-yl]phenyl} benzene-1,4-disulfonamide]: the half-maximal effective concentration (EC50) in experiment [2] was 1700 nM.
For the molecule `CN(C)S(=O)(=O)c1ccc(S(=O)(=O)Nc2ccccc2N2CCCCC2)cc1` [Example 6, N1,N1-dimethyl-N4-[2-(piperidin-1-yl)phenyl]benzene-1,4-disulfonamide], in experiment [1] (2.0 uM compound), the “Lysosomal Patch-Clamp Current fold increase Mean ± SEM (n)” value is recorded as 3.3 ± 0.67 (3). The half-maximal effective concentration (EC50) in experiment [2] was 1700 nM.
Consider `CN(C)S(=O)(=O)c1ccc(S(=O)(=O)Nc2ccccc2N2CCC(Oc3ccccn3)CC2)cc1` [Example 75, N1,N1-dimethyl-N4-{2-[4-(pyridin-2-yloxy)piperidin-1-yl]phenyl}benzene-1,4-disulfonamide], for which the half-maximal effective concentration (EC50) in experiment [2] is 1600 nM.
Take `CN(C)S(=O)(=O)c1ccc(S(=O)(=O)Nc2ccccc2N2CCC(C(=O)OC(C)(C)C)CC2)cc1` [Example 76, f-butyl 1-{2-[4-(dimethylsulfamoyl)benzenesulfonamido]phenyl}piperidine-4-carboxylate]: the concentration for a half-maximal effect (EC50) in experiment [2] is 1300 nM.

(Values after patent US20230010299A1, “HETEROCYCLIC TRPML1 AGONISTS” (LIBRA THERAPEUTICS, INC., priority 2019, published 2023).)
